Measurements from patent publication US12642777B2 (SHENZHEN CHINA RESOURCES JIUCHUANG MEDICAL AND …, priority 2020, dated 2026).

How the values were obtained:
[1] = Pharmacokinetics and tolerated dose of intravenous mitoxantrone chemotherapy reported in a document; format: in vivo, human; conditions: 75 mg/m^2 intravenous bolus versus 3143 ng×min/ml
Procedure: Moreover, the drug is metabolized rapidly after entering the blood, and the drug in the plasma is almost completely metabolized 60 min, 120 min at most, after the administration.

[2] = intravenous bolus, 75 mg/m^2, ovarian cancer; cited from earlier work

Structure (SMILES): O=C1c2c(O)ccc(O)c2C(=O)c2c(NCCNCCO)ccc(NCCNCCO)c21 [mitoxantrone]
- AUC of the document as multiple of the maximum AUC in the present trial [1]: 10.7-32.5 times
- AUC [2]: 560 to 1700 ng·h/mL
